# In article PMC12741935 (Alzheimer's & Dementia, 2025):
# Tested on: 14 DIV hippocampal neurons
# Experiment: oTau-induced dendrite degeneration (MAP2 dendrite length, number) in cultured hippocampal neurons
# Type: cell-based, mouse
# Conditions: oTau 50 nM + inhibitor 24 h vs oTau alone, NVS-PAK1-1 10 nM, AZ 1 nM, G 5 nM
# Protocol: For in vitro study, all animal procedures were conducted in accordance with the National Institutes of Health Guide for the Care and Use of Laboratory Animals using protocols approved by the institutional animal care and use committee at Stanford University. Timed pregnant C57BL/6 mice (Strain code: 027) were purchased from Charles River Laboratories and delivered on embryonic day 15 (E15), after which E16 embryos were used for primary hippocampal cultures. Primary embryonic mouse hippocampal neuron cultures were plated on poly‐D‐lysine‐coated (10 µg/mL) glass cover slips at 40,000 to 50,000 cells per well in 12‐well plates (Corning Life Sciences). Cells were seeded in plating medium DMEM/F12 supplemented with 10% fetal bovine serum and 1 × penicillin/streptomycin (PS) for 2 hours. Medium was then changed to B‐27 Plus Neuronal Culture System (Invitrogen) supplemented with PS, and 2 mM glutamine.
# Immunofluorescence was performed as described previously.[24] Briefly, cultured hippocampal neurons were fixed in 4% formaldehyde for 20 minutes, permeabilized for 6 minutes in 80% ice‐cold methanol, and incubated with primary antibodies at 4°C overnight. Primary antibodies used were rabbit polyclonal MAP2 antibody for labeling dendrites (1:1000, #8707, Cell Signaling) and mouse monoclonal drebrin antibody for labeling dendritic spines (1:300; Cat#ADI‐NBA‐110, Enzo). Secondary antibodies consisted of donkey antirabbit or antimouse conjugated with either FITC or Cy3 (1:400; Jackson ImmunoResearch Laboratories, Inc.).
# The cultured hippocampal neurons were imaged using an oil‐based 63x objective on a Leica Stellaris 5 confocal microscope. The cell nucleus was stained with DAPI and imaged at a wavelength of 405 nm (blue channel), the dendrites stained by MAP2 were imaged at 488 nm wavelength (green channel), and the drebrin‐stained spines were imaged at a wavelength of 561 nm (red channel). Z‐stack images of neurons were acquired at a 1024 × 1024 resolution, a zoom factor of 1.0, and a z‐step size of 0.5 µm. The number of steps for every z‐stack picture of a neuron were determined by the size of the neuron in the z‐plane, to ensure that the entirety of a neuron is captured in the picture. The areas to be imaged were selected systematically, starting from the top‐left region to proceeding to the bottom‐right region of a coverslip. For imaging, preference was given to field of views containing isolated neurons versus clustered neurons.
# For quantification of drebrin‐positive spines in vitro, the images were analyzed using Imaris 9.3 software. Each image consisted of one major neuron and the “filaments” option in Imaris was applied to manually trace along the dendrites of every neuron, by placing starting and seed points at the beginning and along the length of the dendrites, respectively. The largest dendrite diameter (i.e., Starting Point) was set at 9.00 µm threshold while the thinnest dendrite diameter (i.e., Seed Point) was set at 1.00 µm threshold. After manually tracing the dendrites, the spines along the dendrites were assessed using the automatic “spine detection” function in Imaris. The thinnest spine diameter was set at 0.80 µm threshold while the maximum spine length was set at 5.00 µm. The spine density (number of spines/dendrite length) was then calculated for each neuron. All image acquisition and quantification were performed in a blind manner. For in vitro quantification of dendrite degeneration, Neurolucida (MBF Biosciences) in the manual mode was used to measure the total dendritic length, numbers of dendrites, and dendritic complexity for each neuron.
structure (smiles),measurement,setting,value
"CC(C)NC(=O)N1CC[C@H](NC2=Nc3cc(F)ccc3N(CC(F)F)c3ccc(Cl)cc32)C1 [NVS‐PAK1‐1, (S)‐3‐([2‐chloro‐5‐(2,2‐difluoroethyl)‐8‐fluoro‐5H‐dibenzo[b,e][1,4]diazepin‐11‐yl]amino)‐N‐isopropylpyrrolidine‐1‐carboxamide]",dendrite number per neuron,,significantly increased dendrite number per neuron
same,total dendrite length per neuron,PAK1-C 10 nM,preserved dendrite length
